Patent US20240270821A1, “GIP/GLP1/GCG TRI-RECEPTOR AGONISTS AND USES THEREOF” (priority 2023, published 2024)
Residue numbers refer to the chain shown, from its start. Where two headings read alike, the source gives them in different places. Starred links: 1 amine or outer side, 2 acyl side, 3 side chain; linkers in the order of their positions; H or OH if unused. Non-standard residues stand in square brackets, D forms with d. Groups on a side chain read outwards from the residue. *: point of attachment. C20 diacid = O=C(O)CCCCCCCCCCCCCCCCCCC(=O)*; C18 diacid = O=C(O)CCCCCCCCCCCCCCCCC(=O)*; γGlu = O=C(O)[C@H](CCC(=O)[*:2])N[*:1]; 4Pal = N[C@@H](Cc1ccncc1)C(=O)O; αMeL = CC(C)C[C@](C)(N)C(=O)O; Orn = NCCC[C@H](N)C(=O)O; Dap = NC[C@H](N)C(=O)O; AEEA = NCCOCCOCC(=O)O; Aib = CC(C)(N)C(=O)O

Columns and labels:
[1] = molecular target: hGcgR (Homo sapiens, UniProt P47871); assay: Functional cAMP activation in the presence of 0.1% casein (no HSA); format: cell-based;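 also: intracellular cAMP rise after 30 min at 37 °C, read by HTRF against a cAMP standard curve, scaled from buffer only (0%) to maximal control ligand response (100%)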
[2] = molecular target: T1, hGIPR (Homo sapiens, UniProt P48546); assay: Functional cAMP activity in the presence of 1% HSA; format: cell-based
T1 sequence (P48546 22-466): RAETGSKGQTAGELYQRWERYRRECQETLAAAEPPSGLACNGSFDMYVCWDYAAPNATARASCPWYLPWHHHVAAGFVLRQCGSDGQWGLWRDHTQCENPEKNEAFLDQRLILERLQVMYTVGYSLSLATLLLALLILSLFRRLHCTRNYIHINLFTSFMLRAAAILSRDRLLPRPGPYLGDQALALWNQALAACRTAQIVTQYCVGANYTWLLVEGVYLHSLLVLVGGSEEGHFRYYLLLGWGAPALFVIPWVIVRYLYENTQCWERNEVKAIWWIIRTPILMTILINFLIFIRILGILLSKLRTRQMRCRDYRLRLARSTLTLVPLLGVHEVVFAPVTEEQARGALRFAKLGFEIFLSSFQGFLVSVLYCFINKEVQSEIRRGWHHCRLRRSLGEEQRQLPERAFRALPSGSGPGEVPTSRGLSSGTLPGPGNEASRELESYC

[3] = molecular target: T1, hGIPR; assay: Functional cAMP activation in the presence of 0.1% casein (no HSA); format: cell-based;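 also: intracellular cAMP rise after 30 min at 37 °C read by HTRF against a standard curve, scaled between buffer alone (0%) and top control ligand concentration (100%), four-parameter fit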
[4] = molecular target: human GLP1-R (Homo sapiens, UniProt P43220); assay: GLP1-R internalization assay in HEK293 cells; format: cell-based; conditions: for Internalization % TOP: normalized to maximum concentration of GLP-1 (100%)
[5] = molecular target: T2, hGLP-1R (Homo sapiens, UniProt P43220); assay: Functional cAMP activation in the presence of 0.1% casein (no HSA); format: cell-based;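 also: intracellular cAMP rise after 30 min at 37 °C read by HTRF, normalized between buffer only (0%) and maximal control ligand (100%), four-parameter variable-slope fit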
[6] = molecular target: T2, hGLP-1R; assay: Functional cAMP activity in the presence of 1% HSA; format: cell-based
[7] = molecular target: human GcgR (Homo sapiens, UniProt P47871); assay: Functional cAMP activity in the presence of 1% HSA; format: cell-based
[8] = molecular target: T2, hGLP-1R; assay: cell-based or functional assay
[9] = molecular target: human glucagon receptor (human) (UniProt P47871); assay: cell-based or functional assay
[10] = molecular target: T3, human GIP receptor (human) (UniProt P48546); assay: cell-based or functional assay
T3 sequence (looked up): T1 sequence (P48546 22-466)

[11] = molecular target: human GLP-1R (SNAP-GLP-1R expressed in HEK293 cells) (human) (UniProt P43220); assay: cell-based or functional assay
[12] = in the presence of 0.1% casein (no HSA), geometric mean, read-out: Relative cAMP EC50, hGcgR
[13] = in the presence of 0.1% casein (no HSA), geometric mean, read-out: Relative cAMP EC50, hGIPR
[14] = HEK293 cells expressing SNAP-GLP-1R, read-out: GLP1R Internalization EC50
[15] = in the presence of 0.1% casein (no HSA), geometric mean, read-out: Relative cAMP EC50, hGLP-1R
[16] = read-out: cAMP Rel EC50, hGLP-1R

Chain of hGcgR (P47871 26-477): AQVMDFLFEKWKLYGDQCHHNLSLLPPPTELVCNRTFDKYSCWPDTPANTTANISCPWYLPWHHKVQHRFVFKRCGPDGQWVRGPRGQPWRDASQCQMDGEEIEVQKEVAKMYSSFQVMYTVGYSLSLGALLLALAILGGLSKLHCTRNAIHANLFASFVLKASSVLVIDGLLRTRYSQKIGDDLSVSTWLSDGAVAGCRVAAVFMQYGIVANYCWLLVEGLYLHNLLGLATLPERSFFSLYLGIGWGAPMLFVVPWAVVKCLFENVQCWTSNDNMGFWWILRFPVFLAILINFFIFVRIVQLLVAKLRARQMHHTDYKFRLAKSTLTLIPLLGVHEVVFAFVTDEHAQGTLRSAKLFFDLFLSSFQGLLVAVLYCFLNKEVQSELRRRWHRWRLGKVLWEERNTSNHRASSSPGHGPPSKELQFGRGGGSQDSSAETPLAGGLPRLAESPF
Chain of human GcgR (P47871 26-477): as above
Chain of human glucagon receptor (human) (P47871 26-477): as above
Chain of human GLP1-R (P43220 24-463): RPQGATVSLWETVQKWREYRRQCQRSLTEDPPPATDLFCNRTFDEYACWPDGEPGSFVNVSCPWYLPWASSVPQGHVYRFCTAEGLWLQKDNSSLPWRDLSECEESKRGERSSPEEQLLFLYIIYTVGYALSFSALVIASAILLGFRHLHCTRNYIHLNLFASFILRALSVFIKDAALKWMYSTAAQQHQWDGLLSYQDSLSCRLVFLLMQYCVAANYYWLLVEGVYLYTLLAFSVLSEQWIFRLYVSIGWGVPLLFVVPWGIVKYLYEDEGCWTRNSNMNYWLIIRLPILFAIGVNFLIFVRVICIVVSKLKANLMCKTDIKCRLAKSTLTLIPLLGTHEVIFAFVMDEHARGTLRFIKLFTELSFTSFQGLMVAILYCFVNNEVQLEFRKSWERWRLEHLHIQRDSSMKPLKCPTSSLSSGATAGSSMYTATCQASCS
T2 sequence (P43220 24-463): as above
Chain of human GLP-1R (SNAP-GLP-1R expressed in HEK293 cells) (human) (P43220 24-463): as above

Molecule: H-Y[Aib]QGTFTSDFSK[αMeL]LDKK([AEEA-γGlu-C18 diacid])AQ[Aib]AFIEYLIE[Aib]GESSGAPPPSGE-NH2 [Example 217]
- EC50 [1, 12]: 5.11 nM
- EC50 ([2]; read-out: cAMP Rel EC50, hGIPR): 15 nM
- EC50 [3, 13]: 0.0897 nM
- EC50 [4, 14]: 27.6 nM
- Internalization % TOP [4]: 58.2%
- EC50 [5, 15]: 0.667 nM
- EC50 [6, 16]: 130 nM
- EC50 ([7]; read-out: cAMP Rel EC50, hGcgR): 1570 nM

Molecule: H-Y[Aib]QGTFTSDFS[Orn][αMeL]LDKK([AEEA-AEEA-γGlu-C18 diacid])AQ[Aib]AFIEYLLE[Aib]G[4Pal]SSGAPPPSGS-NH2 [Example 183]
- EC50 [1, 12]: 3.83 nM
- EC50 ([2]; read-out: cAMP Rel EC50, hGIPR): 13.7 nM
- EC50 [3, 13]: 0.0759 nM
- EC50 [4, 14]: 100 nM
- Internalization % TOP [4]: 45.4%
- EC50 [5, 15]: 5.03 nM
- EC50 [6, 16]: 295 nM
- EC50 ([7]; read-out: cAMP Rel EC50, hGcgR): 504 nM

Molecule: H-Y[Aib]QGTFTSDFSK[αMeL]LDKK([AEEA-γGlu-C20 diacid])AQ[Aib]AFIEYLLAGGPSSGEPPPSGS-NH2 [Example 8]
- EC50 [1, 12]: 6.65 nM
- EC50 ([2]; read-out: cAMP Rel EC50, hGIPR): 39.4 nM
- EC50 [3, 13]: 0.231 nM
- EC50 [4, 14]: 63.2 nM
- Internalization % TOP [4]: 74%
- EC50 [5, 15]: 2.11 nM
- EC50 [6, 16]: 603 nM
- EC50 ([7]; read-out: cAMP Rel EC50, hGcgR): 1560 nM

Molecule: H-Y[Aib]QGTFTSDFS[Orn][αMeL]LDKK([AEEA-γGlu-C18 diacid])AQ[Aib]AFIEWLLEGGTSSGAPPPSGT-NH2 [Example 177]
- EC50 [1, 12]: 4.22 nM
- EC50 ([2]; read-out: cAMP Rel EC50, hGIPR): 34.8 nM
- EC50 [3, 13]: 0.213 nM
- EC50 [4, 14]: 79.4 nM
- Internalization % TOP [4]: 44%
- EC50 [5, 15]: 2.97 nM
- EC50 [6, 16]: 483 nM
- EC50 ([7]; read-out: cAMP Rel EC50, hGcgR): 758 nM

Molecule: H-Y[Aib]QGTFTSDFS[Dap][αMeL]LDKK([AEEA-γGlu-C18 diacid])AQ[Aib]AFIEYLLEGGPSSGAPPPGGS-NH2 [Example 68]
- EC50 [1, 12]: 8.55 nM
- EC50 ([2]; read-out: cAMP Rel EC50, hGIPR): 85.1 nM
- EC50 [3, 13]: 0.46 nM
- EC50 [4, 14]: 95.2 nM
- Internalization % TOP [4]: 33.8%
- EC50 [5, 15]: 3.07 nM
- EC50 [6, 16]: 612 nM
- EC50 ([7]; read-out: cAMP Rel EC50, hGcgR): 1160 nM

Molecule: H-Y[Aib]QGTFTSDFS[Orn][αMeL]LDKK([AEEA-γGlu-C18 diacid])AQ[Aib]AFIEYLLE[Aib]GPSSGAPPPSGE-NH2 [Example 110]
- EC50 [1, 12]: 2.45 nM
- EC50 ([2]; read-out: cAMP Rel EC50, hGIPR): 19.8 nM
- EC50 [3, 13]: 0.102 nM
- EC50 [4, 14]: 28.3 nM
- Internalization % TOP [4]: 42.5%
- EC50 [5, 15]: 2.99 nM
- EC50 [6, 16]: 821 nM
- EC50 ([7]; read-out: cAMP Rel EC50, hGcgR): 627 nM

Molecule: H-Y[Aib]QGTFTSDFSR[αMeL]LDKK([AEEA-γGlu-C20 diacid])AQ[Aib]AFIEYLLE[Aib]GPSSGAPPPGGS-NH2 [Example 42]
- EC50 [1]: 5.83 nM
- EC50 [2]: 32.3 nM
- EC50 [3]: 0.115 nM
- EC50 [4]: 61.4 nM
- Internalization % TOP [4]: 58.3%
- EC50 [5]: 2.17 nM
- EC50 [6]: 700 nM
- EC50 [7]: 1520 nM

B1: Example 686 (peptide)
chain: YXQGTXTSDXSIXLDXKAQXXFIEXLIEGGPSSGEPPPETE
modifications: synthetic construct; SITE 2: note = 2-Aminoisobutyric Acid; SITE 6: note = alpha-methyl-2-fluoro-L-phenylalanine; SITE 10: note = 3-(4-Pyridyl)-L-alanine; SITE 13: note = alpha-methyl-leucine; SITE 16: note = L-ornithine; SITE 17: note = Lysine is chemically modified through conjugation of the epsil
- cAMP Rel EC50 (1% HSA) [8]: 19.1 nM
- cAMP Rel EC50 (1% HSA) [9]: 169 nM
- cAMP Rel EC50 (1% HSA) [10]: 0.542 nM
- GLP1R Internalization EC50 [11]: 33.2 nM
- Internalization % TOP [11]: 101%

B2: Example 1026 (peptide)
chain: YXQGTFTSDXSQXLDXKAQXQFIEXLIEGGPSSGEPPPSGSEE
modifications: non-natural residues, lipidated Lys, C-terminal amide; synthetic construct; SITE 2: note = 2-Aminoisobutyric Acid; SITE 10: note = 3-(4-Pyridyl)-L-alanine; SITE 13: note = alpha-methyl-leucine; SITE 16: note = L-ornithine; SITE 17: note = Lysine is chemically modified through conjugation of the epsilon-amino group of the Lysine side chain with (gamma-Gl)
- Relative cAMP EC50 [8]: 1.77 nM
- cAMP Rel EC50, nM (1% HSA) [8]: 299 nM
- Relative cAMP EC50 [9]: 6.32 nM
- cAMP Rel EC50, nM (1% HSA) [9]: 2080 nM
- Relative cAMP EC50 [10]: 0.308 nM
- cAMP Rel EC50, nM (1% HSA) [10]: 61.3 nM
- GLP1R Internalization EC50 [11]: 47.4 nM
- Internalization % TOP [11]: 80%

B3: Example 358 (peptide)
chain: YXQGTFTSDYSKXLDKKAQXAFIEYLLEGGESSGAPPPSGS
modifications: synthetic construct; SITE 2: note = 2-Aminoisobutyric Acid; SITE 13: note = alpha-methyl-leucine; SITE 17: note = Lysine is chemically modified through conjugation of the epsilon-amino group of the Lysine side chain with (2-[2-(2-Amino-ethoxy)-ethoxy]-acetyl)-(gamma-Glu)-CO-(CH2) 16-CO2H; SITE 20: n
- Relative cAMP EC50 [8]: 2.31 nM
- cAMP Rel EC50, nM (1% HSA) [8]: 492 nM
- Relative cAMP EC50 [9]: 2.78 nM
- cAMP Rel EC50, nM (1% HSA) [9]: 876 nM
- Relative cAMP EC50 [10]: 0.182 nM
- cAMP Rel EC50, nM (1% HSA) [10]: 38.8 nM
- GLP1R Internalization EC50 [11]: 21.5 nM
- Internalization % TOP [11]: 83.1%

B4: Example 362 (peptide)
chain: B3 chain with K12Q
modifications: synthetic construct; SITE 2: note = 2-Aminoisobutyric Acid; SITE 13: note = alpha-methyl-leucine; SITE 17: note = Lysine is chemically modified through conjugation of the epsilon-amino group of the Lysine side chain with (2-[2-(2-Amino-ethoxy)-ethoxy]-acetyl)-(gamma-Glu)-CO-(CH2) 16-CO2H; SITE 20: n
- Relative cAMP EC50 [8]: 1.77 nM
- cAMP Rel EC50, nM (1% HSA) [8]: 450 nM
- Relative cAMP EC50 [9]: 6.04 nM
- cAMP Rel EC50, nM (1% HSA) [9]: 1450 nM
- Relative cAMP EC50 [10]: 0.262 nM
- cAMP Rel EC50, nM (1% HSA) [10]: 38.7 nM
- GLP1R Internalization EC50 [11]: 22.8 nM
- Internalization % TOP [11]: 77.5%
